According to patent publication US20020160990A1, “PHYTOSTEROL AND/OR PHYTOSTANOL DERIVATIVES” (priority 1998, published 2002):
Where two headings read alike, the source gives them in different places. Marks after values point to notes of the source that are not given here.

Assays:
[1] = Solubility in Swiss rapeseed oil at room temperature by incremental addition of oil; type: physicochemical
Excerpt: The minimum starting ratio was about 1:1, and trials were discontinued at above 10:1.

[2] = tested on: male Fisher rats; assay: Effects of phytosterol esters on plasma triglycerides in rats on high fat diet; type: in vivo, rat; settings: for plasma triglycerides, Week 0 Means ± SD: Week 0 (pretreatment baseline), high fat diet, n=6; for plasma triglycerides, Week 2 Means ± SD: Week 2 of 2% (wt/wt) lipid in high fat diet; for plasma triglycerides, % change from pretreatment, Week 2: Week 2 vs week 0; for plasma triglycerides, Week 4 Means ± SD: Week 4 of 2% (wt/wt) lipid in high fat diet; for plasma triglycerides, % change from pretreatment, Week 4: Week 4 vs week 0
Excerpt: (§1) Thirty male Fisher rats, weighing 177±14 g, were maintained on a high fat diet (Table 1) during the 2 weeks preceding treatment. They were then randomly divided into five experimental groups consisting of 6 animals each. The control group (Group 1) remained on the high fat diet used during the 2-week pretreatment period. For the other experimental diets, in order to have isocaloric diets and an equal amount of fat in all the experimental diets, 2% (wt/wt) of the fat content of the control diet (1% coconut oil and 1% corn oil) was replaced by 2% (wt/wt) of the following lipids:
(§2) The rats were allowed free access to water and feed, and they were maintained on a 12-hour light-dark cycle. The feed in the cages was replaced daily, all unconsumed material discarded and food intake measured. Blood samples (1 ml) were taken by retroorbital puncture at the start of the experimental period (week 0) and after 2 weeks of treatment (week 2). After 4 weeks, the animals were sacrificed by withdrawing blood from the vena cava under Isoflurane anesthesia. Blood was collected into tubes containing […] as an anticoagulant.
(§3) Plasma was prepared from the heparinized blood by immediate centrifugation at 1600 g for 10 minutes at 4° C. Assays of plasma cholesterol, triglycerides, and HDL-cholesterol (precipitation method) were determined enzymatically on a COBASFARA analyzer (Roche Diagnostica, Switzerland). Non-HDL cholesterol was calculated by difference. The fatty acid composition of the diets was analyzed by gas chromatography.
(§4) All data are expressed as means±SD (standard deviation) for animals in each diet group. The mean differences between dietary groups were analyzed by one-way analysis of covariance (ANCOVA) with subsequent Dunnet's test for multiple comparison against a control group (Group 1 and/or Group 2). The covariate adjusted for was the value of the corresponding parameter at the start of the treatment period (week 0). All tests were performed at the 5%-level and 95%-confidence intervals were calculated.

[3] = tested on: male Fisher rats; assay: Effects of phytosterol esters on lipoproteins (HDL and non-HDL cholesterol) in rats on high fat diet; type: in vivo, rat; settings: time point not given; for Non HDL cholesterol Means: calculated by difference; for HDL Cholesterol Means: precipitation method
Excerpt: as §1, §2, §3, §4

[4] = tested on: male Fisher rats; assay: Effects of phytosterol esters on plasma total cholesterol in rats on high fat diet; type: in vivo, rat; settings: for plasma total cholesterol, Week 0 Means ± SD: Week 0 (pretreatment baseline), high fat diet, n=6; for plasma total cholesterol, Week 2 Means ± SD: Week 2 of 2% (wt/wt) lipid in high fat diet; for plasma total cholesterol, % change from pretreatment, Week 2: Week 2 vs week 0; for plasma total cholesterol, Week 4 Means ± SD: Week 4 of 2% (wt/wt) lipid in high fat diet; for plasma total cholesterol, % change from pretreatment, Week 4: Week 4 vs week 0
Excerpt: as §1, §2, §3, §4

[5] = Swiss rapeseed oil, room temperature
[6] = Swiss rapeseed oil, room temperature, minimum starting ratio about 1:1, discontinued above 10:1

In the case of `CC/C=C\C/C=C\C/C=C\C/C=C\C/C=C\C/C=C\CCC(=O)OCC` [docosahexaenoic acid ethyl ester 90%, docosahexaenoic acid ethyl ester], the “Solubility (in words)” value [1] is reported as “miscible” and the “Solubility g oil/g material” value [1] is reported as over 1 g oil/g material.

In the case of `CC/C=C\C/C=C\C/C=C\C/C=C\C/C=C\CCCC(=O)O[C@H]1CC[C@@]2(C)C(=CC[C@H]3[C@@H]4CC[C@H]([C@H](C)/C=C/[C@@H](CC)C(C)C)[C@@]4(C)CC[C@@H]32)C1` [Group 4, stigmasterol-EPA ester], the “plasma triglycerides, Week 0 Means ± SD” value [2] is reported as 0.98 ± 0.15, the “plasma triglycerides, Week 2 Means ± SD” value [2] is reported as 0.81 ± 0.19^b and the “plasma triglycerides, % change from pretreatment, Week 2” value [2] is reported as −17%. The “plasma triglycerides, Week 4 Means ± SD” value [2] was 0.83 ± 0.13^b,c, the “plasma triglycerides, % change from pretreatment, Week 4” value [2] was −15% and the “Non HDL cholesterol Means” value [3] was 1.07 ± 0.26^a,b. The “HDL Cholesterol Means” value [3] was 0.53 ± 0.08, the “plasma total cholesterol, Week 0 Means ± SD” value [4] was 2.97 ± 0.49 and the “plasma total cholesterol, Week 2 Means ± SD” value [4] was 1.94 ± 0.12^b. For the same compound, the “plasma total cholesterol, % change from pretreatment, Week 2” value [4] was −35%, the “plasma total cholesterol, Week 4 Means ± SD” value [4] was 1.61 ± 0.25^b and the “plasma total cholesterol, % change from pretreatment, Week 4” value [4] was −46%.

In the case of `CC/C=C\C/C=C\C/C=C\C/C=C\C/C=C\C/C=C\CCC(=O)O[C@H]1CC[C@@]2(C)C(=CC[C@H]3[C@@H]4CC[C@H]([C@H](C)/C=C/[C@@H](CC)C(C)C)[C@@]4(C)CC[C@@H]32)C1` [stigmasterol docosahexaenoate], the “Solubility (in words)” value [1, 5] is reported as “miscible” and the “Solubility g oil/g material” value [1, 6] is reported as over 1 g oil/g material.

With `CC[C@H](/C=C/[C@@H](C)[C@H]1CC[C@H]2[C@@H]3CC=C4C[C@@H](O)CC[C@]4(C)[C@H]3CC[C@]12C)C(C)C` [stigmasterol] the “Solubility (in words)” value [1, 5] was “insoluble” and the “Solubility g oil/g material” value [1, 6] was over 10 g oil/g material.

For `CC/C=C\C/C=C\C/C=C\C/C=C\C/C=C\CCCC(=O)OCC` [EPA ethyl ester 90%, EPA ethyl ester], the “Solubility (in words)” value [1, 5] was “miscible” and the “Solubility g oil/g material” value [1, 6] was over 1 g oil/g material.

For Stigmastanol docosahexaenoate, the “Solubility (in words)” value [1, 5] was “miscible” and the “Solubility g oil/g material” value [1, 6] was over 1 g oil/g material.

With `CCC=CCC=CCC=CCC=CCC=CCC=CCCC(=O)OC1CC[C@@]2(C)C(CC[C@H]3[C@@H]4CC[C@H]([C@H](C)CC[C@@H](CC)C(C)C)[C@@]4(C)CC[C@@H]32)C1` (some centres unmarked) [Group 3, sitostanol-DHA ester] the “plasma triglycerides, Week 0 Means ± SD” value [2] was 1.25 ± 0.26, the “plasma triglycerides, Week 2 Means ± SD” value [2] was 0.83 ± 0.13^b and the “plasma triglycerides, % change from pretreatment, Week 2” value [2] was −34%. For the same compound, the “plasma triglycerides, Week 4 Means ± SD” value [2] was 0.74 ± 0.15^b,c, the “plasma triglycerides, % change from pretreatment, Week 4” value [2] was −41% and the “Non HDL cholesterol Means” value [3] was 0.75 ± 0.21^a. The “HDL Cholesterol Means” value [3] was 0.49 ± 0.10^b, the “plasma total cholesterol, Week 0 Means ± SD” value [4] was 2.90 ± 0.58 and the “plasma total cholesterol, Week 2 Means ± SD” value [4] was 1.79 ± 0.37^b. The “plasma total cholesterol, % change from pretreatment, Week 2” value [4] was −38%, the “plasma total cholesterol, Week 4 Means ± SD” value [4] was 1.23 ± 0.26^b and the “plasma total cholesterol, % change from pretreatment, Week 4” value [4] was −58%.

In the case of `CCC=CCC=CCC=CCC=CCC=CCCCC(=O)OC1CCC2(C)C(=CCC3C2CCC2(C)C(C(C)C=CC(CC)C(C)C)CCC32)C1` (centres unmarked) [stigmasterol eicosapentenoate, Stigmasterol eicosapenatenoate], the “Solubility (in words)” value [1, 5] is reported as “miscible” and the “Solubility g oil/g material” value [1, 6] is reported as over 1 g oil/g material.

For `CC[C@H](CC[C@@H](C)[C@H]1CC[C@H]2[C@@H]3CC[C@H]4C[C@@H](O)CC[C@]4(C)[C@H]3CC[C@]12C)C(C)C` [stigmastanol], the “Solubility (in words)” value [1, 5] was “insoluble” and the “Solubility g oil/g material” value [1, 6] was over 10 g oil/g material.
